# Test results from US20230150974A1 (Foghorn Therapeutics Inc., priority 2020, published 2023).
# Tests used:
# [1] = target: T1, HiBiT-BRM (Homo sapiens, UniProt P51531); assay: HiBiT-BRM cell-based degradation assay (Nano-Glo HiBiT Lytic Detection); conditions: HeLa cells expressing HiBiT-BRM, 24 h; for DC50: read-out: BRM HiBit Degradation IC50
# T1 construct: expressed in transfected cells
# How it was run: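 Luminescence from HiBiT–LgBiT complementation in lysates of a stable HiBiT-BRM HeLa line measured after 24 h compound exposure. Degradation expressed as percent relative to DMSO-treated cells and cells given 2 μM of a known BRM/BRG1 degrader.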
# [2] = target: T2, HiBit-BRG1 (Homo sapiens, UniProt P51532); assay: HiBit-BRG1 cell-based degradation assay (Nano-Glo HiBiT Lytic Detection); conditions: HeLa cells expressing HiBit-BRG1 and LgBit, 24 h; for DC50: read-out: BRG1 HiBit Degradation IC50; for Dmax: read-out: BRG1 HiBit Degradation Maximum (%)
# T2 construct: expressed in transfected cells
# How it was run: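 Seed 5000 HeLa HiBit-BRG1/LgBit cells per well; treat 24 h; equilibrate 15 min at room temperature; add Nano-Glo HiBiT lytic reagent, shake 10 min, read luminescence. Percent degradation is scaled between DMSO and 2 μM reference degrader wells.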
# T2 sequence (P51532 whole entry): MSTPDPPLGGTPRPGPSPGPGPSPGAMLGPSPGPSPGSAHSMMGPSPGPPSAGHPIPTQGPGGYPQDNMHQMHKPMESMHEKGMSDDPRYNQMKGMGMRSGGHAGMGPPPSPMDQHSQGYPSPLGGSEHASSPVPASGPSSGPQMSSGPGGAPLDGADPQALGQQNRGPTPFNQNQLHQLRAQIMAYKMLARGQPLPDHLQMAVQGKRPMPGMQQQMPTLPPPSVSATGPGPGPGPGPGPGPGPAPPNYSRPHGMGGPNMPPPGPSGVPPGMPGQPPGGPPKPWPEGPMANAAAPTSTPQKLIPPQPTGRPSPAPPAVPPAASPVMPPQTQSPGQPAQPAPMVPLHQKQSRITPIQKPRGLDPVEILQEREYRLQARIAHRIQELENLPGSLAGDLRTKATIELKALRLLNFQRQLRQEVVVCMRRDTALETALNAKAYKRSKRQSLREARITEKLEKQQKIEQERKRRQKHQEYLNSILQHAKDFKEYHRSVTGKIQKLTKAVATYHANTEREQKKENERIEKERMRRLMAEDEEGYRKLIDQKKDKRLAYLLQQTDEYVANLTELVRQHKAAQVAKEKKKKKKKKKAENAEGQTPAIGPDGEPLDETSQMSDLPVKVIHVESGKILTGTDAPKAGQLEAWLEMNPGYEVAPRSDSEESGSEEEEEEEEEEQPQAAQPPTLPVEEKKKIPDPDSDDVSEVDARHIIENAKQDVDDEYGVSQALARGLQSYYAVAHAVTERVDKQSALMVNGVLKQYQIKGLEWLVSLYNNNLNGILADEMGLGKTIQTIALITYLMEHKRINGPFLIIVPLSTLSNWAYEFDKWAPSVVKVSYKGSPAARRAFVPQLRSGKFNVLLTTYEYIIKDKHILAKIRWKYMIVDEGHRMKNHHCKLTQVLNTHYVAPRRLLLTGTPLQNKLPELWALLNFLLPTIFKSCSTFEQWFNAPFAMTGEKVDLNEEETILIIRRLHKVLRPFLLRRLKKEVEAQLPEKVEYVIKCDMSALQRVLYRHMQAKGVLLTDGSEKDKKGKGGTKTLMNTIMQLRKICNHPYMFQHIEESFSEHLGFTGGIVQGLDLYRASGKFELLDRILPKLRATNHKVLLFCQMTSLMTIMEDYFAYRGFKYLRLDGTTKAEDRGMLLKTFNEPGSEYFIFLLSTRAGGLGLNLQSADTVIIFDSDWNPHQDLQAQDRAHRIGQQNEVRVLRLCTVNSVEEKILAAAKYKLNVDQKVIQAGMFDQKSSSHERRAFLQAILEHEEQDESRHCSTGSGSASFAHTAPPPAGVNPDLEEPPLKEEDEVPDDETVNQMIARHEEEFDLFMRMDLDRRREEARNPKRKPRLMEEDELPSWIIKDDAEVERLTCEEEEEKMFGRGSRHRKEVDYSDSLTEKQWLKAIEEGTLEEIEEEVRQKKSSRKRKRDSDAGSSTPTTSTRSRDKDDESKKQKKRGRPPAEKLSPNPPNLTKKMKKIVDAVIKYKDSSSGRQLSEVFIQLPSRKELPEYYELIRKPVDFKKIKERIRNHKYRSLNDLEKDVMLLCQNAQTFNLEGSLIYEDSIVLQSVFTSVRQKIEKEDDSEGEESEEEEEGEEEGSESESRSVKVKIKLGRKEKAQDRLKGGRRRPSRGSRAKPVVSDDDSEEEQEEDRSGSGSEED
# T1 sequence (P51531 whole entry): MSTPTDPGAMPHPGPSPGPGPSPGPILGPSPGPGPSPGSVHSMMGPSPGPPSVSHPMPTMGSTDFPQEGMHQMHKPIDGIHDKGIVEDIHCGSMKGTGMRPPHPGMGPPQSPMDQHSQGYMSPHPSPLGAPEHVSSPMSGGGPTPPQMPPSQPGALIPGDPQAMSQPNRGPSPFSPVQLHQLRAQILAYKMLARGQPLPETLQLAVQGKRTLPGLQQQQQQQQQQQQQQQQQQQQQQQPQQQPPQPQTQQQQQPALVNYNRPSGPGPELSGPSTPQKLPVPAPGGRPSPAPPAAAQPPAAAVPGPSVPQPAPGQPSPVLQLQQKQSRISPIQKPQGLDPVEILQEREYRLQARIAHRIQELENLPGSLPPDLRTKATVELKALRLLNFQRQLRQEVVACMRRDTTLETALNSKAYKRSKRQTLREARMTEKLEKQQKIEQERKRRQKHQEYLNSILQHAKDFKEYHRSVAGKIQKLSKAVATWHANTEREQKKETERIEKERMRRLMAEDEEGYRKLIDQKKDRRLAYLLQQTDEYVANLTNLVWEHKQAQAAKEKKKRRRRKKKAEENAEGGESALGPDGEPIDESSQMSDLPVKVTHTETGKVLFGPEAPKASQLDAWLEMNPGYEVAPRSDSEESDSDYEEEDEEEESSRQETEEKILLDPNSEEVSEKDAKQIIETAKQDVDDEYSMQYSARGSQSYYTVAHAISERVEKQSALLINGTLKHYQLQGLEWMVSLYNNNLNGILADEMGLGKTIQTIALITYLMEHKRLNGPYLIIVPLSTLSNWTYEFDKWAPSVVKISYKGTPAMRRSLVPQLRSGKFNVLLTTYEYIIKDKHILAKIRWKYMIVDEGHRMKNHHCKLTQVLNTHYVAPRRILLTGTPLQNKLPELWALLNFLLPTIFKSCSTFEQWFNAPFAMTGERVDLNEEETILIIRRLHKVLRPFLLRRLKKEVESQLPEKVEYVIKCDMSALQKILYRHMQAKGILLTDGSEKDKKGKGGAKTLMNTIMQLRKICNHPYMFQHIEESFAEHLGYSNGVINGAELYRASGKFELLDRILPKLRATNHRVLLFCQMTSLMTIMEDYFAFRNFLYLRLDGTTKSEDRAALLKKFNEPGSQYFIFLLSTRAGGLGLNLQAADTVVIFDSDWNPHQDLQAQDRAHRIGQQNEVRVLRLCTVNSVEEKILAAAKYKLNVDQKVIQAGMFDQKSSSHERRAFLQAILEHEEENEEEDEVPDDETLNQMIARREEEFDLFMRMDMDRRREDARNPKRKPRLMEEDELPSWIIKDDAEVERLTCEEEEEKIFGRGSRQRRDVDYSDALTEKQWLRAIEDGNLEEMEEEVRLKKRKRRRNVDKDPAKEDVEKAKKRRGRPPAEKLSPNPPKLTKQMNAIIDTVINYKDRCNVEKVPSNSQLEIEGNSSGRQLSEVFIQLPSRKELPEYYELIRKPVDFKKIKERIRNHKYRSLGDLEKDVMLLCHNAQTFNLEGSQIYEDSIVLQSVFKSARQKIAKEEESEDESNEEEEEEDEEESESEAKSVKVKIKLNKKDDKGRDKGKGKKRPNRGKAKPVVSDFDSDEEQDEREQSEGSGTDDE
smiles,measurement,setting,value
"Cc1ncsc1-c1ccc(CNC(=O)[C@@H]2C[C@@H](O)CN2C(=O)[C@@H](NC(=O)CCN2CCN(CC(=O)NCc3ccc(CCOc4cc(-c5ccccc5O)nnc4N)cc3)CC2)C(C)(C)C)cc1 [Compound 179, (2S,4R)-1-[(2S)-2-(3-[4-[([[4-(2-[[3-amino-6-(2-hydroxyphenyl)pyridazin-4-yl]oxy]ethyl)phenyl]methyl]carbamoyl)methyl]piperazin-1-yl]propanamido)-3,3-dimethylbutanoyl]-4-hydroxy-N-[[4-(4-methyl-1,3-thiazol-5-yl)phenyl]methyl]pyrrolidine-2-carboxamide]",BRM HiBit Degradation Maximum (%),[1],C (“C” indicates maximum degradation <50%)
same,DC50,[1],> 1 µM
same,DC50,[2],> 1 µM
same,Dmax,[2],< 50%
"Nc1nnc(-c2ccccc2O)cc1OCCc1ccc(C(=O)NCCCCCCC(=O)NCc2ccc(S(=O)(=O)Nc3cccc4c(Cl)c[nH]c34)cc2)cc1 [Compound 13, 7-[[4-(2-[[3-amino-6-(2-hydroxyphenyl)pyridazin-4-yl]oxy]ethyl)phenyl]formamido]-N-([4-[(3-chloro-1H-indol-7-yl)sulfamoyl]phenyl]methyl)heptanamide]",BRM HiBit Degradation Maximum (%),[1],C (“C” indicates maximum degradation <50%)
same,DC50,[1],> 1 µM
same,DC50,[2],> 1 µM
same,Dmax,[2],< 50%
"Nc1nnc(-c2ccccc2O)cc1OCCc1ccc(CNC(=O)C2CC2CNC(=O)COc2cccc3c2C(=O)N(C2CCC(=O)NC2=O)C3=O)cc1 (stereo not drawn) [Compound 7, N-[[4-(2-[[3-amino-6-(2-hydroxyphenyl)pyridazin-4-yl]oxy]ethyl)phenyl]methyl]-2-[(2-[[2-(2,6-dioxopiperidin-3-yl)-1,3-dioxoisoindol-4-yl]oxy]acetamido)methyl]cyclopropane-1-carboxamide]",BRM HiBit Degradation Maximum (%),[1],C (“C” indicates maximum degradation <50%)
same,DC50,[1],> 1 µM
same,DC50,[2],> 1 µM
same,Dmax,[2],< 50%
"Cc1ncsc1-c1ccc([C@H](C)NC(=O)[C@@H]2C[C@@H](O)CN2C(=O)[C@@H](c2cc(OCCN3CCC(OC4CN(C(=O)c5ccc(CCOc6cc(-c7ccccc7O)nnc6N)cc5)C4)CC3)no2)C(C)C)cc1 [Compound 253, (2S,4R)-1-((R)-2-(3-(2-(4-((1-(4-(2-((3-amino-6-(2-hydroxyphenyl)pyridazin-4-yl)oxy)ethyl)benzoyl)azetidin-3-yl)oxy)piperidin-1-yl)ethoxy)isoxazol-5-yl)-3-methylbutanoyl)-4-hydroxy-N-((S)-1-(4-(4-methylthiazol-5-yl)phenyl)ethyl)pyrrolidine-2-carboxamide]",BRM HiBit Degradation Maximum (%),[1],A (“A” indicates maximum degradation ≥75%)
same,DC50,[1],< 0.01 µM
same,DC50,[2],> 1 µM
same,Dmax,[2],< 50%
"Cc1ncsc1-c1ccc([C@H](C)NC(=O)[C@@H]2C[C@@H](O)CN2C(=O)[C@@H](c2cc(OCCN3CCC(O)(C(=O)NCc4ccc(CCOc5cc(-c6ccccc6O)nnc5N)cc4)CC3)no2)C(C)C)cc1 [Compound 206, N-[[4-(2-[[3-amino-6-(2-hydroxyphenyl)pyridazin-4-yl]oxy]ethyl)phenyl]methyl]-4-hydroxy-1-[2-([5-[(2R)-1-[(2S,4R)-4-hydroxy-2-[[(1S)-1-[4-(4-methyl-1,3-thiazol-5-yl)phenyl]ethyl]carbamoyl]pyrrolidin-1-yl]-3-methyl-1-oxobutan-2-yl]-1,2-oxazol-3-yl]oxy)ethyl]piperidine-4-carboxamide]",BRM HiBit Degradation Maximum (%),[1],A (“A” indicates maximum degradation ≥75%)
same,DC50,[1],> 0.01 µM
same,DC50,[2],> 0.1 µM
same,Dmax,[2],> 75%
Nc1nnc(-c2ccccc2O)cc1OCCc1ccc(CNC(=O)CCCCCCCCCCNc2ccc3c(c2)C(=O)N(C2CCC(=O)NC2=O)C3=O)cc1 (stereo not drawn) [Compound 66],BRM HiBit Degradation Maximum (%),[1],C (“C” indicates maximum degradation <50%)
same,DC50,[1],> 1 µM
same,DC50,[2],> 1 µM
same,Dmax,[2],< 50%
